The text below walks through data of publication PMC6934184, “Selective DNA-PKcs inhibition extends the therapeutic index of localized radiotherapy and chemotherapy” (The Journal of Clinical Investigation, 2019).

This experiment deals with T1, DMPK (Homo sapiens, UniProt Q09013).
T1 construct: purchased Thermo Fisher Scientific (Life Technologies) SelectScreen
Kind of experiment: SelectScreen LanthaScreen. Type of experiment: binding. The settings on record: read-out: % displacement. In a few lines: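 SelectScreen broad panel; activity (Z'LYTE, Adapta) plus binding formats. ATP: Km app for CSF1R Z'LYTE; 10 for CAMK1 Adapta. Readout = % per kinase.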
A general note: TR-FRET usually uses a lanthanide donor and a delayed reading to cut background.

T1 sequence (Q09013 whole entry): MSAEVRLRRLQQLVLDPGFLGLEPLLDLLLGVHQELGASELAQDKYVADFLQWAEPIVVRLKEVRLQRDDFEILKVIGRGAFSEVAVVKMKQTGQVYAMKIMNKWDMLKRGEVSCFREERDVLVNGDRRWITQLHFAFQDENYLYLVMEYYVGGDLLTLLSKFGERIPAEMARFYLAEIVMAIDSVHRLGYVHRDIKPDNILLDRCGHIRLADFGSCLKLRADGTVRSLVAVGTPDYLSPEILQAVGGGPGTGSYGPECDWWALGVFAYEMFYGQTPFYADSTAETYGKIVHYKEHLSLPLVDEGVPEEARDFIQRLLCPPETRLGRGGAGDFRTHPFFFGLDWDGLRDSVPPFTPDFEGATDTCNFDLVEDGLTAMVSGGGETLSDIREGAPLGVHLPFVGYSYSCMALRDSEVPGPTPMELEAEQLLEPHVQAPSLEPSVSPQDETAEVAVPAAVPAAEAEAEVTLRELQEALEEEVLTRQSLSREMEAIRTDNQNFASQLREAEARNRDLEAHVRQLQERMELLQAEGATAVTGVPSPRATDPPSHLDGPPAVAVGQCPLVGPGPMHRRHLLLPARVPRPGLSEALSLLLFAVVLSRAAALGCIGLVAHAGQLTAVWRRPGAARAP

With `CN(C(=O)CN1CCOCC1)c1ccc2sc3c(-c4cccc5c(=O)cc(N6CC7CCC(C6)O7)oc45)cccc3c2c1` [NU5455], the inhibition at 1 µM is -1.5%.
